This passage reports IC50 results from patent US9409870B2, “Compounds” (CHIESI FARMACEUTICI S.p.A., priority 2014, dated 2016).

What is called pIC50 is the IC50 on a negative log10 scale, so that one unit is a factor of ten.

Each structure is given as a SMILES string. pIC50: −log10 of the molar value.

The experiment has as its target T1, human neutrophil elastase (HNE) (Homo sapiens, UniProt P08246).
T1 construct: purchased Sigma E8140
T1 sequence (P08246 30-247 limits assumed): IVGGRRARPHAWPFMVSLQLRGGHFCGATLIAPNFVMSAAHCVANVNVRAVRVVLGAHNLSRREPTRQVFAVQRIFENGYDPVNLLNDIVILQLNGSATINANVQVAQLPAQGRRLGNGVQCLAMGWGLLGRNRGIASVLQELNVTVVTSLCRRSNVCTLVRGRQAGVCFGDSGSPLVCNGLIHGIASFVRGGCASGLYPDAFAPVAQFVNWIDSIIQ
Put plainly: HNE enzyme activity assay (fluorogenic peptide substrate MeOSuc-Ala-Ala-Pro-Val-AMC). It counts as biochemical. Particulars: human leukocyte elastase 0.00072 U/mL, substrate 100 μM, 25° C., 30 minutes, pH 7.5; at least two separate experiments; read-out: FINE inhibition (HNE enzyme inhibition, IC50 values). Here is the method:
Compounds of this invention were tested for potency in a human neutrophil elastase (HNE) enzyme activity assay.
Assays were performed in 96-well plates in a total assay volume of 100 μL. The final concentration of elastase enzyme (human leukocyte elastase, Sigma E8140) was 0.00072 U/mL. The peptide substrate (MeOSuc-Ala-Ala-Pro-Val-AMC, Calbiochem #324740) was used at a final concentration of 100 μM. The final concentration of DMSO was 1% in the assay buffer (0.05M Tris.HCl, 0.1M NaCl, 0.1M CaCl2, 0.0005% brij-35, pH 7.5). The enzymatic reaction was started by addition of the enzyme and incubated at 25° C. for 30 minutes. After incubation, the reaction was stopped by addition of soybean trypsin inhibitor (Sigma T9003) at a final concentration of 50 μg/well. Fluorescence was measured using a Molecular Devices fluorescence plate reader using 380 nm excitation and 460 nm emission wavelengths.
A dose response to each compound was performed and the effect of compound in each experiment was expressed as a percentage inhibition of the control enzyme fluorescence. Dose response curves were plotted and compound potency (IC50) was determined. Compounds were tested in at least two separate experiments.

`CCS(=O)(=O)N1CCC(NC(=O)n2c(-c3ccnn3-c3ccc(C#N)cc3)c(C)n(-c3cccc(C(F)(F)F)c3)c2=O)CC1` [Example 43, 5-[2-(4-Cyano-phenyl)-2H-pyrazol-3-yl]-4-methyl-2-oxo-3-(3-trifluoromethyl-phenyl)-2,3-dihydro-imidazole-1-carboxylic acid (1-ethanesulfonyl-piperidin-4-yl)-amide]: the pIC50 is over 9.00. Turning to `Cc1c(-c2ccnn2-c2ccc(C#N)cc2)n(C(=O)NC2CCOCC2)c(=O)n1-c1cccc(C(F)(F)F)c1` [Example 44, 5-[2-(4-Cyano-phenyl)-2H-pyrazol-3-yl]-4-methyl-2-oxo-3-(3-trifluoromethyl-phenyl)-2,3-dihydro-imidazole-1-carboxylic acid (tetrahydro-pyran-4-yl)-amide], the pIC50 is over 9.00. As to `Cc1c(-c2ccnn2-c2ccc(C#N)cc2)n(C(=O)NC2CCCC2)c(=O)n1-c1cccc(C(F)(F)F)c1` [Example 45, 5-[2-(4-Cyano-phenyl)-2H-pyrazol-3-yl]-4-methyl-2-oxo-3-(3-trifluoromethyl-phenyl)-2,3-dihydro-imidazole-1-carboxylic acid cyclopentylamide], the pIC50 is over 9.00. As for `Cc1c(-c2ccnn2-c2ccc(C#N)cc2)n(C(=O)N[C@@H]2CCN(C)C2)c(=O)n1-c1cccc(C(F)(F)F)c1` [Example 46, 5-[2-(4-Cyano-phenyl)-2H-pyrazol-3-yl]-4-methyl-2-oxo-3-(3-trifluoromethyl-phenyl)-2,3-dihydro-imidazole-1-carboxylic acid ((R)-1-methyl-pyrrolidin-3-yl)-amide], the pIC50 is over 9.00. As for `Cc1c(-c2ccnn2-c2ccc(C#N)cc2)n(C(=O)N[C@H]2CCN(C)C2)c(=O)n1-c1cccc(C(F)(F)F)c1` [Example 47, 5-[2-(4-Cyano-phenyl)-2H-pyrazol-3-yl]-4-methyl-2-oxo-3-(3-trifluoromethyl-phenyl)-2,3-dihydro-imidazole-1-carboxylic acid ((S)-1-methyl-pyrrolidin-3-yl)-amide], the negative-log IC50 (pIC50) was over 9.00. In the case of `Cc1c(-c2ccnn2-c2ccc(C#N)cc2)n(C(=O)NCc2ccccn2)c(=O)n1-c1cccc(C(F)(F)F)c1` [Example 49, 5-[2-(4-Cyano-phenyl)-2H-pyrazol-3-yl]-4-methyl-2-oxo-3-(3-trifluoromethyl-phenyl)-2,3-dihydro-imidazole-1-carboxylic acid (pyridin-2-ylmethyl)-amide], the pIC50 was 8.00 to 9.00.

As to `Cc1c(-c2ccnn2-c2ccc(C#N)cc2)n(C(=O)NCc2cccnc2)c(=O)n1-c1cccc(C(F)(F)F)c1` [Example 50, 5-[2-(4-Cyano-phenyl)-2H-pyrazol-3-yl]-4-methyl-2-oxo-3-(3-trifluoromethyl-phenyl)-2,3-dihydro-imidazole-1-carboxylic acid (pyridin-3-ylmethyl)-amide], the negative-log IC50 (pIC50) is 8.00 to 9.00. For the compound `Cc1c(-c2ccnn2-c2ccc(C#N)cc2)n(C(=O)NCc2ccncc2)c(=O)n1-c1cccc(C(F)(F)F)c1` [Example 51, 5-[2-(4-Cyano-phenyl)-2H-pyrazol-3-yl]-4-methyl-2-oxo-3-(3-trifluoromethyl-phenyl)-2,3-dihydro-imidazole-1-carboxylic acid (pyridin-4-ylmethyl)-amide], the pIC50 is over 9.00. Take `Cc1c(-c2ccnn2-c2ccc(C#N)cc2)n(C(=O)NCc2cnccn2)c(=O)n1-c1cccc(C(F)(F)F)c1` [Example 52, 5-[2-(4-Cyano-phenyl)-2H-pyrazol-3-yl]-4-methyl-2-oxo-3-(3-trifluoromethyl-phenyl)-2,3-dihydro-imidazole-1-carboxylic acid (pyrazin-2-ylmethyl)-amide]: the pIC50 was 8.00 to 9.00. As for `Cc1c(-c2ccnn2-c2ccc(C#N)cc2)n(C(=O)N[C@@H]2CCC[C@H]2O)c(=O)n1-c1cccc(C(F)(F)F)c1` [Example 53, 5-[2-(4-Cyano-phenyl)-2H-pyrazol-3-yl]-4-methyl-2-oxo-3-(3-trifluoromethyl-phenyl)-2,3-dihydro-imidazole-1-carboxylic acid ((1R,2R)-2-hydroxy-cyclopentyl)-amide], the figure is over 9.00.
